Assay results reported in PMC12281475, “Mediator Kinase Inhibitor Selectivity and Activity in Colorectal Cancer” (ACS Chemical Biology, 2025).

System: COLO205 cells
Test: Phospho-proteome profiling (CDK-motif antibody enrichment, LC-MS/MS)
Format: cell-based, human
Conditions: 6 H
From the text: We phospho-proteome profiled COLO205 cells to identify Mediator kinase substrates following chemical inhibition of Mediator kinase activity. Given the confirmed CDK8/19 selectivity of our compounds in binding and enzymatic activity assays, we employed a pool of antibodies selective for the proline-rich motifs phosphorylated by the CDK family to enrich potential CDK8/19 substrates for LC-MS/MS analysis.
Adherent COLO205 cells were lysed with a urea buffer, lysates were reduced with DTT, alkylated with iodoacetimide and digested with trypsin-tosylphenylalanyl chloromethyl ketone. Digested peptides were immunoprecipitated using a pool of motif antibodies from Cell Signaling Technologies (US) comprising: phospho-MAPK substrate (PXS*P or S*PXR/K, #2325, RRID:AB_331820), phospho-CDKs substrate ((K/H)-S*P, #2324; RRID:AB_2244779), phospho-PLK binding motif (ST*P, #5243; RRID:AB_10891778) and phospho-tPE motif (T*PE, #3004; RRID:AB_10890649)-of phospho-MAPK (2325), phospho-CDK (2324), phospho-PLK (5243) and phospho-tPE (C3004) motif-recognizing antibodies immobilized onto protein A/G beads. Immunoprecipitated peptides were analyzed using an LTQ-Orbitrap-Velos. Sequences were assigned to the MS/MS spectra and evaluated using SEQUEST 3G and SORCERER 2 (Sage-N Research v4.0, Milpitas). Quantitative data was evaluated and clustered in Spotfire Decision Site (www.spotfire.tibco.com) and normalized using quartile normalization. Functional annotation and pathway analysis used DAVID (https://david.ncifcrf.gov/). […]
Phospho-proteome analyses
Adherent COLO205 cells were washed with PBS and cells lysed using urea lysis buffer (9 M Urea, 20 mM HEPES, pH 8.0, 1 mM beta-glycerophosphate, 1 mM sodium vanadate, 2.5 mM sodium pyrophosphate) and stored at -80 °C prior to analysis. The supernatants were reduced with 100 mM DTT for 30 minutes at 55 °C, followed by alkylation with 50 mM iodoacetimide for 15 minutes at ambient temperature in the dark.
The samples were diluted in 20 mM HEPES, pH 8.0 and digested overnight with 10 ug/mL trypsin-tosylphenylalanyl chloromethyl ketone in 1 mM HCl. Digested peptides were acidified with 1% formic acid and then desalted over 360-mg SEP PAK C18 columns (Waters, UK). Peptides were eluted with 40% acetonitrile in 0.125% formic acid, dried under a vacuum and the lyophilised peptides used for immunoprecipitation.
A pool of motif antibodies from Cell Signaling Technologies (US) comprising: phospho-MAPK substrate (PXS*P or S*PXR/K, #2325, RRID:AB_331820), phospho-CDKs substrate ((K/H)S*P, #2324; RRID:AB_2244779), phospho-PLK binding motif (ST*P, […]
RRID:AB_10890649), were immobilised onto protein A/G beads overnight at 4 °C. The lyophilised peptides were resuspended in MOPS buffer (50 mM MOPS, pH 7.2, 10 mM KH2PO4, 50 mM NaCl) and centrifuged for 5 mins at 13,500 rpm in an Eppendorf benchtop microcentrifuge. The supernatants were incubated with the motif-bound beads for 2.5 hours at 4 °C . The beads were harvested by centrifugation at 4000 rpm in an Eppendorf benchtop microcentrifuge for 5 mins, washed with MOPS buffer twice and washed again 5 times with deionised water. The peptides were eluted off the beads using 0.125% formic acid, were desalted and dried under a vacuum. The lyophilised immunoprecipitated peptides were resuspended in 0.125% formic acid and separated on a capillary column packed with Magic C18 AQ reversed-phase resin.
Peptides were eluted using a 72-minute linear gradient of acetonitrile in 0.125% formic acid delivered at 280nL/min. Samples were analysed using an LTQ-Orbitrap-Velos.
MS Parameter Settings were: MS Run Time 96 min, MS1 Scan Range (300.0 – 1500.00), Top 20 MS/MS (Min Signal 500, Isolation Width 2.0, Normalized Coll.
Charge State Rejection Enabled, Charge State 1+ Rejected, Dynamic Exclusion Enabled, Repeat Count 1, Repeat Duration 35.0, Exclusion List Size 500, Exclusion Duration 40.0, Exclusion Mass Width Relative to Mass, Exclusion Mass Width 10ppm). […]

[1] = MCM4 peptide 69 - fsSppqmhssaipldfdvSspltygtpssr - 98
[2] = MCM4 peptide 86 - vsSpltygtpssr - 98
[3] = MDC1 peptide 1645 - SSvkTpkpvepaaSdlepftptdqsvTpeaiaqggqsk - 1682
[4] = MDC1 peptide 1649 - tpkpvepaasdlepfTptdqsvTpeaiaqggqsk - 1682
[5] = MED13 peptide 551 - TpStpqsqhfyqmpTpdplvpskpmedr - 578
[6] = MED13 peptide 551 - tpstpqSqhfyqmpTpdplvpskpmedr - 578
[7] = MED14 peptide 1106 - agnwpgSpqvsgpSpaar - 1123
[8] = MED26 peptide 295 - gSvpSpSprpqaldatqvpSplplaqpsTppvr - 328
[9] = MED26 peptide 295 - gsvpSpsprpqaldatqvpSplplaqpStppvrr - 328
[10] = MED26 peptide 295 - gsvpspsprpqaldatqvpSplplaqpStppvrr -328
[11] = MED26 peptide 295 - gsvpspsprpqaldatqvpSplplaqpsTppvr - 328
[12] = MLLT6 peptide 446 - palsatpvpadeTpetglkek - 466
[13] = NDRG3 peptide 327 - srthstSSSlgsgeSpfsr - 345
[14] = NEDD4L peptide 549 - avkdTlSnpqSpqpSpYnSpkpqhk - 593
[15] = NOP2 peptide 173 - eaaagiqwSeeeTedeeeekevTpesgppk - 202
[16] = NOSIP peptide 158 - vlpsfwipslTpeak - 172
[17] = NRIP1 peptide 537 - tsviespstnrtTpvSTpplltssk - 561
[18] = PBK peptide 18 - ksvlcstpTinipaSpfmqk - 37
[19] = PBK peptide 19 - svlcStptinipaSpfmqk - 37
[20] = PBK peptide 19 - svlcsTpTinipaspfmqk - 37
[21] = PDE12 peptide 200 - eakpgaaepevgvpsslspSSpSsswtetdveer - 233
[22] = PLEC peptide 4274/4384 - SSsvgsSssypiSpavsr - 4291/4401
[23] = PLEKHA6 peptide 453 - shsvprspSqgsysr - 467
[24] = PPP1R18 peptide 192 - wrlSpgeTper - 202
[25] = PRC1 peptide 487/447 - klntttmsnatanssirpifggtvyhSpvsr - 517/477

Cn1cc(-c2ccc(-c3cncc(Cl)c3N3CCC4(CCNC4=O)CC3)cc2)cn1 [CCT251545]
MEAN MS SIGNAL CMPD 1 6 H (MCM4 peptide 69 - fSsppqmhssaipldfdvSsplTygtpssr - 98): 71644
CMPD 1/DMSO [1]: 0.313
MEAN MS SIGNAL CMPD 1 6 H [1]: 16633
CMPD 1/DMSO [2]: 0.545
MEAN MS SIGNAL CMPD 1 6 H [2]: 23881
CMPD 1/DMSO [3]: 0.574
MEAN MS SIGNAL CMPD 1 6 H [3]: 46837
CMPD 1/DMSO [4]: 0.539
MEAN MS SIGNAL CMPD 1 6 H [4]: 44678
CMPD 1/DMSO [5]: 0.359
MEAN MS SIGNAL CMPD 1 6 H [5]: 9156
CMPD 1/DMSO [6]: 0.429
MEAN MS SIGNAL CMPD 1 6 H [6]: 13284
CMPD 1/DMSO [7]: 0.142
MEAN MS SIGNAL CMPD 1 6 H [7]: 17584
CMPD 1/DMSO [8]: 0.215
MEAN MS SIGNAL CMPD 1 6 H [8]: 56284
CMPD 1/DMSO [9]: 0.344
MEAN MS SIGNAL CMPD 1 6 H [9]: 14569
CMPD 1/DMSO [10]: 0.404
MEAN MS SIGNAL CMPD 1 6 H [10]: 11273
CMPD 1/DMSO [11]: 0.324
MEAN MS SIGNAL CMPD 1 6 H [11]: 51395
CMPD 1/DMSO [12]: 0.499
MEAN MS SIGNAL CMPD 1 6 H [12]: 13974
CMPD 1/DMSO [13]: 0.635
MEAN MS SIGNAL CMPD 1 6 H [13]: 12713
CMPD 1/DMSO [14]: 2.036
MEAN MS SIGNAL CMPD 1 6 H [14]: 126084
CMPD 1/DMSO [15]: 0.618
MEAN MS SIGNAL CMPD 1 6 H [15]: 97741
CMPD 1/DMSO [16]: 0.562
MEAN MS SIGNAL CMPD 1 6 H [16]: 425932
CMPD 1/DMSO [17]: 1.857
MEAN MS SIGNAL CMPD 1 6 H [17]: 157739
CMPD 1/DMSO [18]: 0.492
MEAN MS SIGNAL CMPD 1 6 H [18]: 411168
CMPD 1/DMSO [19]: 0.553
MEAN MS SIGNAL CMPD 1 6 H [19]: 167495
CMPD 1/DMSO [20]: 0.535
MEAN MS SIGNAL CMPD 1 6 H [20]: 63854
CMPD 1/DMSO [21]: 0.255
MEAN MS SIGNAL CMPD 1 6 H [21]: 32966
CMPD 1/DMSO [22]: 0.605
MEAN MS SIGNAL CMPD 1 6 H [22]: 787072
CMPD 1/DMSO [23]: 1.818
MEAN MS SIGNAL CMPD 1 6 H [23]: 361701
CMPD 1/DMSO [24]: 0.562
MEAN MS SIGNAL CMPD 1 6 H [24]: 109529
CMPD 1/DMSO [25]: 0.592
MEAN MS SIGNAL CMPD 1 6 H [25]: 508312
